Measured values published in PubChem BioAssay (NCI).
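In this assay, cells in 96-well plates receive the compound at five concentrations for 48 hours. Endpoints are linearly interpolated between the surrounding concentrations. The concentration for full growth arrest is given as TGI.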

Key:
Assay in all cases: NCI-60 cell line screen, 48 h
SF-539 CNS = system: SF-539 CNS
OVCAR-3 ovarian = system: OVCAR-3 ovarian
NCI-H226 lung = system: NCI-H226 lung
SK-MEL-5 melanoma = system: SK-MEL-5 melanoma
MDA-MB-231 breast = system: MDA-MB-231 breast
SW-620 colon = system: SW-620 colon
HCC-2998 colon = system: HCC-2998 colon
RXF 393 renal = system: RXF 393 renal
NCI-H522 lung = system: NCI-H522 lung
ACHN renal = system: ACHN renal
MDA-MB-435 = system: MDA-MB-435
SN12C renal = system: SN12C renal
BT-549 breast = system: BT-549 breast
A498 renal = system: A498 renal
OVCAR-4 ovarian = system: OVCAR-4 ovarian
A549 NSCLC = system: A549 NSCLC
SK-OV-3 ovarian = system: SK-OV-3 ovarian
HCT-15 colon = system: HCT-15 colon
M14 melanoma = system: M14 melanoma
LOX IMVI melanoma = system: LOX IMVI melanoma
RPMI-8226 leukemia = system: RPMI-8226 leukemia
NCI-H23 lung = system: NCI-H23 lung
HS 578T breast = system: HS 578T breast
786-0 renal = system: 786-0 renal
MOLT-4 leukemia = system: MOLT-4 leukemia
HT29 colon = system: HT29 colon
T-47D breast = system: T-47D breast
HCT-116 colon = system: HCT-116 colon
PC-3 prostate = system: PC-3 prostate
CCRF-CEM leukemia = system: CCRF-CEM leukemia
SF-295 CNS = system: SF-295 CNS
SNB-75 CNS = system: SNB-75 CNS
DU-145 prostate = system: DU-145 prostate
CAKI-1 renal = system: CAKI-1 renal
HOP-92 NSCLC = system: HOP-92 NSCLC
SK-MEL-28 melanoma = system: SK-MEL-28 melanoma
OVCAR-8 ovarian = system: OVCAR-8 ovarian
UO-31 renal = system: UO-31 renal
NCI/ADR-RES ovarian = system: NCI/ADR-RES ovarian
K-562 leukemia = system: K-562 leukemia
COLO 205 colon = system: COLO 205 colon
IGROV1 ovarian = system: IGROV1 ovarian
EKVX NSCLC = system: EKVX NSCLC
UACC-257 melanoma = system: UACC-257 melanoma
U251 CNS = system: U251 CNS
NCI-H460 lung = system: NCI-H460 lung
KM12 colon = system: KM12 colon
HL-60(TB) leukemia = system: HL-60(TB) leukemia
SR leukemia = system: SR leukemia
OVCAR-5 ovarian = system: OVCAR-5 ovarian
SF-268 CNS = system: SF-268 CNS
SNB-19 CNS = system: SNB-19 CNS
UACC-62 melanoma = system: UACC-62 melanoma
HOP-62 NSCLC = system: HOP-62 NSCLC
TK-10 renal = system: TK-10 renal
MALME-3M melanoma = system: MALME-3M melanoma
MDA-N = system: MDA-N
SK-MEL-2 melanoma = system: SK-MEL-2 melanoma

SMILES: COc1ccc2c(c1)C(=O)C1(C2)[C@H](c2ccccc2)C2C(=O)c3cc(OC)ccc3C2[C@H]1c1ccccc1 (some centres undefined)
- TGI (SF-539 CNS): > 100 µM
- TGI (OVCAR-3 ovarian): > 100 µM
- TGI (NCI-H226 lung): > 100 µM
- TGI (SK-MEL-5 melanoma): > 100 µM
- TGI (MDA-MB-231 breast): > 100 µM
- TGI (SW-620 colon): > 100 µM
- TGI (HCC-2998 colon): > 100 µM
- TGI (RXF 393 renal): > 100 µM
- TGI (NCI-H522 lung): > 100 µM
- TGI (ACHN renal): > 100 µM
- TGI (MDA-MB-435): > 100 µM
- TGI (SN12C renal): > 100 µM
- TGI (BT-549 breast): > 100 µM
- TGI (A498 renal): > 100 µM
- TGI (OVCAR-4 ovarian): > 100 µM
- TGI (A549 NSCLC): > 100 µM
- TGI (SK-OV-3 ovarian): > 100 µM
- TGI (HCT-15 colon): > 100 µM
- TGI (M14 melanoma): > 100 µM
- TGI (LOX IMVI melanoma): > 100 µM
- TGI (RPMI-8226 leukemia): > 100 µM
- TGI (NCI-H23 lung): > 100 µM
- TGI (HS 578T breast): > 100 µM
- TGI (786-0 renal): > 100 µM
- TGI (MOLT-4 leukemia): > 100 µM
- TGI (HT29 colon): > 100 µM
- TGI (T-47D breast): > 100 µM
- TGI (HCT-116 colon): > 100 µM
- TGI (PC-3 prostate): > 100 µM
- TGI (CCRF-CEM leukemia): > 100 µM
- TGI (SF-295 CNS): > 100 µM
- TGI (SNB-75 CNS): > 100 µM
- TGI (DU-145 prostate): > 100 µM
- TGI (CAKI-1 renal): 5.63 µM
- TGI (HOP-92 NSCLC): > 100 µM
- TGI (SK-MEL-28 melanoma): > 100 µM
- TGI (OVCAR-8 ovarian): > 100 µM
- TGI (UO-31 renal): > 100 µM
- TGI (NCI/ADR-RES ovarian): > 100 µM
- TGI (K-562 leukemia): > 100 µM
- TGI (COLO 205 colon): > 100 µM
- TGI (IGROV1 ovarian): > 100 µM
- TGI (EKVX NSCLC): > 100 µM
- TGI (UACC-257 melanoma): > 100 µM
- TGI (U251 CNS): > 100 µM
- TGI (NCI-H460 lung): > 100 µM
- TGI (KM12 colon): > 100 µM
- TGI (HL-60(TB) leukemia): > 100 µM
- TGI (SR leukemia): > 100 µM
- TGI (OVCAR-5 ovarian): > 100 µM
- TGI (SF-268 CNS): > 100 µM
- TGI (SNB-19 CNS): > 100 µM
- TGI (UACC-62 melanoma): > 100 µM
- TGI (HOP-62 NSCLC): > 100 µM
- TGI (TK-10 renal): > 100 µM
- TGI (MALME-3M melanoma): > 100 µM
- TGI (MDA-N): > 100 µM

SMILES: c1ccc2c(c1)N[C@@H]1c3[nH]c4ccccc4c3CC[C@H]21
- TGI (SF-539 CNS): 31.4 µM
- TGI (OVCAR-3 ovarian): 27.3 µM
- TGI (NCI-H226 lung): 31.6 µM
- TGI (SK-MEL-5 melanoma): 27.3 µM
- TGI (MDA-MB-231 breast): 29.9 µM
- TGI (SW-620 colon): 33.3 µM
- TGI (RXF 393 renal): 32.6 µM
- TGI (NCI-H522 lung): 24.2 µM
- TGI (ACHN renal): 68.1 µM
- TGI (MDA-MB-435): 31.1 µM
- TGI (SN12C renal): 28.5 µM
- TGI (BT-549 breast): 37.7 µM
- TGI (A498 renal): 32 µM
- TGI (A549 NSCLC): 41.4 µM
- TGI (SK-OV-3 ovarian): 36.7 µM
- TGI (HCT-15 colon): 65.3 µM
- TGI (M14 melanoma): 26.4 µM
- TGI (LOX IMVI melanoma): 29.5 µM
- TGI (RPMI-8226 leukemia): 59 µM
- TGI (NCI-H23 lung): 33 µM
- TGI (HS 578T breast): 25.9 µM
- TGI (786-0 renal): 28.5 µM
- TGI (MOLT-4 leukemia): 42 µM
- TGI (HT29 colon): 29.7 µM
- TGI (T-47D breast): 76.2 µM
- TGI (SK-MEL-2 melanoma): 31.7 µM
- TGI (HCT-116 colon): 27.8 µM
- TGI (PC-3 prostate): 24.6 µM
- TGI (CCRF-CEM leukemia): 36.9 µM
- TGI (SF-295 CNS): 29.7 µM
- TGI (SNB-75 CNS): 22.8 µM
- TGI (DU-145 prostate): 35.3 µM
- TGI (CAKI-1 renal): 38.6 µM
- TGI (HOP-92 NSCLC): 30.6 µM
- TGI (SK-MEL-28 melanoma): 35.3 µM
- TGI (OVCAR-8 ovarian): 25.6 µM
- TGI (UO-31 renal): 37.2 µM
- TGI (NCI/ADR-RES ovarian): 28 µM
- TGI (K-562 leukemia): 27.8 µM
- TGI (COLO 205 colon): 27.9 µM
- TGI (IGROV1 ovarian): 20.9 µM
- TGI (EKVX NSCLC): 37.2 µM
- TGI (UACC-257 melanoma): > 100 µM
- TGI (U251 CNS): 27.2 µM
- TGI (NCI-H460 lung): 33.9 µM
- TGI (KM12 colon): 30.7 µM
- TGI (HL-60(TB) leukemia): 36.2 µM
- TGI (OVCAR-5 ovarian): 29.4 µM
- TGI (SF-268 CNS): 65.1 µM
- TGI (SNB-19 CNS): 37.9 µM
- TGI (UACC-62 melanoma): 31.6 µM
- TGI (HOP-62 NSCLC): 26.9 µM
- TGI (TK-10 renal): > 100 µM
- TGI (MALME-3M melanoma): 22.1 µM
- TGI (MDA-N): 39.2 µM

SMILES: CN(C)c1nc2n(CCO)ccnc-2c(=O)n1
- TGI (SF-539 CNS): > 100 µM
- TGI (OVCAR-3 ovarian): > 100 µM
- TGI (NCI-H226 lung): > 100 µM
- TGI (SK-MEL-5 melanoma): > 100 µM
- TGI (MDA-MB-231 breast): > 100 µM
- TGI (SW-620 colon): > 100 µM
- TGI (HCC-2998 colon): > 100 µM
- TGI (RXF 393 renal): > 100 µM
- TGI (NCI-H522 lung): > 100 µM
- TGI (ACHN renal): > 100 µM
- TGI (MDA-MB-435): > 100 µM
- TGI (SN12C renal): > 100 µM
- TGI (BT-549 breast): > 100 µM
- TGI (A498 renal): > 100 µM
- TGI (OVCAR-4 ovarian): > 100 µM
- TGI (A549 NSCLC): > 100 µM
- TGI (SK-OV-3 ovarian): > 100 µM
- TGI (HCT-15 colon): > 100 µM
- TGI (M14 melanoma): > 100 µM
- TGI (LOX IMVI melanoma): > 100 µM
- TGI (RPMI-8226 leukemia): > 100 µM
- TGI (NCI-H23 lung): > 100 µM
- TGI (HS 578T breast): > 100 µM
- TGI (786-0 renal): > 100 µM
- TGI (MOLT-4 leukemia): > 100 µM
- TGI (HT29 colon): > 100 µM
- TGI (T-47D breast): > 100 µM
- TGI (SK-MEL-2 melanoma): > 100 µM
- TGI (HCT-116 colon): > 100 µM
- TGI (PC-3 prostate): > 100 µM
- TGI (CCRF-CEM leukemia): > 100 µM
- TGI (SF-295 CNS): > 100 µM
- TGI (SNB-75 CNS): > 100 µM
- TGI (DU-145 prostate): > 100 µM
- TGI (CAKI-1 renal): > 100 µM
- TGI (HOP-92 NSCLC): > 100 µM
- TGI (SK-MEL-28 melanoma): > 100 µM
- TGI (OVCAR-8 ovarian): > 100 µM
- TGI (UO-31 renal): > 100 µM
- TGI (NCI/ADR-RES ovarian): > 100 µM
- TGI (K-562 leukemia): > 100 µM
- TGI (COLO 205 colon): > 100 µM
- TGI (IGROV1 ovarian): > 100 µM
- TGI (EKVX NSCLC): > 100 µM
- TGI (UACC-257 melanoma): > 100 µM
- TGI (U251 CNS): > 100 µM
- TGI (NCI-H460 lung): > 100 µM
- TGI (KM12 colon): > 100 µM
- TGI (SR leukemia): > 100 µM
- TGI (OVCAR-5 ovarian): > 100 µM
- TGI (SF-268 CNS): > 100 µM
- TGI (SNB-19 CNS): > 100 µM
- TGI (UACC-62 melanoma): > 100 µM
- TGI (HOP-62 NSCLC): > 100 µM
- TGI (TK-10 renal): > 100 µM
- TGI (MALME-3M melanoma): > 100 µM
- TGI (MDA-N): > 100 µM
